Assays:
[1] = Photostability (HPLC, solar simulator irradiation); type: physicochemical; details: percentage of degradation after 6 h irradiation with solar simulator; 100 ppm in extracellular solution pH 7.4
Protocol: (§1) In order to study the solution stability and photostability of the potassium channel modulators object of the present invention, a stock solution of the proper analyte (1 mg/mL) in dimethylsulfoxide (DMSO) has been prepared. This solution has been then diluted to a concentration of 100 ppm using extracellular solution containing (in mM): 138 NaCl, 2 CaCl2, 5.4 KCl, 1 MgCl2, 10 glucose, and 10 HEPES, at pH 7.4, adjusted with NaOH. To measure solution stability, the diluted solutions have been maintained at ambient temperature for 6 h. To measure photostability, the diluted solutions have been irradiated for 6 h using a Oriel Sol3A Solar Simulator (Newport corporation, Irvine, CA, USA) with a 12x12 inches output beam. Aliquots of solution have been withdrawn after 6h and analyzed by HPLC using a Kinetex C18, 150 mm × 4.6 mm × 2.6 µm (Phenomenex, Bologna, Italy) as stationary phase and a mobile phase constituted by A: H2O/CH3CN (80:20) and B: CH3CN. Gradient elution has been performed from 20% to 90% of B in 7.50 minutes and from 90% to 20% of B in 1 minute. The pump flux has been set to 1.5 mL/min. Column has been thermostatted at 40°C during analysis. Results are espressed in Table 3 as percentage of degradation of the product calculated as ratio between the peak area of the analyte at time 0 (Pa0) and after 6h (Pa6) using the following formula: % degradation = (Pa0−Pa6)/Pa0 *100. [formula]

[2] = Solution stability (HPLC, extracellular solution, ambient temperature); type: physicochemical; details: percentage of degradation after 6 h at ambient temperature; 100 ppm in extracellular solution pH 7.4
Protocol: as §1

Kv7.2 = molecular target: T1, Kv7.2 (Homo sapiens, UniProt O43526); assay: Whole-cell patch-clamp on CHO cells transiently expressing Kv7.2; type: cell-based; details: CHO cells, mean±SEM, >1 activating, <1 inhibiting; for Idrug/Ictl at 0 mV: ratio of ramp-evoked Kv7.2 current amplitude in presence and absence of drug at 0 mV; for Idrug/Ictl at -40 mV: ratio of ramp-evoked Kv7.2 current amplitude in presence and absence of drug at -40 mV
T1 construct: expressed in transfected cells; host or cells: CHO cells (ATCC CRL-9618), transient transfection, pcDNA3.1(+)
Protocol: (§2) According to the experimental protocol, these plasmids were expressed individually or in combination (in particular of Kv7.2 and Kv7.3), together with a plasmid-expressing enhanced green fluorescent protein (Clontech, Palo Alto, CA) used as a transfection marker. Total cDNA in the transfection mixture was kept at 4 µg. CHO cells were grown in 100-mm plastic Petri dishes in Dulbecco's modified Eagle's medium containing 10% fetal bovine serum, nonessential amino acids (0.1 mM), penicillin (50 U/ml), and streptomycin ([…]) in a humidified atmosphere at 37°C with 5% CO2. The cells were plated on glass coverslips coated with poly-L-lysine, and transfected one day after plating with the appropriate cDNA using Lipofectamine 2000 (Life Technologies), according to the manufacturer's protocol.
(§3) Currents from CHO cells were recorded at room temperature (20-22°C) 24 hours after trasfection using the whole-cell configuration of the patch-clamp technique, with glass micropipettes of 3-5 MΩ resistance. During the recording, constant perfusion of extracellular solution was maintained. The extracellular solution contained (in mM): 138 NaCl, 2 CaCl2, 5.4 KCl, 1 MgCl2, 10 glucose, and 10 HEPES, at pH 7.4, adjusted with NaOH. The pipette (intracellular) solution contained (in mM): 140 KCl, 2 MgCl2, 10 EGTA, 10 HEPES, 5 Mg^2+-ATP, at pH 7.3-7.4, adjusted with KOH. Currents were recorded using an Axopatch-200A amplifier, filtered at 5 kHz, and digitized using a DigiData 1440A (Molecular Devices). The pCLAMP software (version 10.2, Molecular Devices) was used for data acquisition and analysis. To evaluate the activity of exemplary compounds on Kv7.2 (see Table 1), as well as on Kv7.1, Kv7.2/7.3, Kv7.3 and Kv7.4 channels for selected compounds (see Table 2), the cells were clamped at -80 mV and currents were elicited by 3-s voltage ramps from -80 mV to +20 mV in the presence and absence of each compound. […] The effects of drugs were expressed as shift in the ramp-voltage (ΔV) calculated at 20% of the maximal current (Miceli et al, Proc Natl Acad Sci U S A. 2013, 110(11):4386-91). Curves were fitted using the following equation: y=max/(1+x/EC50)n, where x is the drug concentration, n is the Hill coefficient and max is the maximal value achieved, as previously described (Ambrosino et al, Br J Pharmacol. 2013, 168(6):1430-1444). Data analysis and fit were performed using Sigmaplot (version 12.3).
Ramp-evoked Kv7.2 currents were analyzed by measuring the currents at -40 mV (a membrane potential value close to the activation threshold) and at 0 mV (a membrane potential value at which Kv7.2 conductance is largely saturated). In particular, -40 mV represents the threshold potential for spike initiation and 0 mV represents instead the membrane potential value at which maximal conductance of the channel is achieved.
In Table 1, the effect of exemplary compounds of the invention is expressed as the ratio between current amplitude in the presence (Idrug) and absence (Ictl) of the drug at these two membrane voltages. […]

Kv7.2/7.3 = molecular target: T2, Kv7.2/7.3 (Homo sapiens, UniProt O43525+O43526); assay: Whole-cell patch-clamp on CHO cells co-expressing Kv7.2 and Kv7.3; type: cell-based
T2 construct: expressed in transfected cells; host or cells: CHO cells (ATCC CRL-9618), transient co-transfection, pcDNA3.1(+)
Protocol: as §2, §3

Kv7.1 = molecular target: T3, Kv7.1 (Homo sapiens, UniProt P51787); assay: Whole-cell patch-clamp on CHO cells transiently expressing Kv7.1; type: cell-based; details: shift in ramp-voltage (ΔV) at 20% of maximal current, 0.01-10 µM
T3 construct: expressed in transfected cells; host or cells: CHO cells (ATCC CRL-9618), transient transfection, pcDNA3.1(+)
Protocol: as §2
as §3, with “Curves were fitted using the following equation: y=max/(1+x/EC50)n, where x is the drug concentration, n is the Hill coefficient and max is the maximal value achieved, as previously described (Ambrosino et al, Br J Pharmacol. 2013, 168(6):1430-1444). Data analysis and fit were performed using Sigmaplot (version 12.3).” left out

Compound | Photostability [1] | Solution stability [2] | Idrug/Ictl at 0 mV (Kv7.2) | Idrug/Ictl at -40 mV (Kv7.2) | EC50 (Kv7.2/7.3; Kv7.2/7.3, shift in ramp-voltage (ΔV) at 20% of maximal current, 0.01-10 µM) | potency relative to retigabine in increasing Kv7.2/3 currents (Kv7.2/7.3; from EC50 values of Table 2) | EC50 (Kv7.1)
CN1CCN(S(=O)(=O)Nc2ccc3c(c2)CCN3Cc2ccc(F)cc2)CC1 [N-(1-(4-fluorobenzyl)indolin-5-yl)-4-methylpiperazine-1-sulfonamide] | B (20%< degradation<40%) | B (20%< degradation<40%) | 0.95±0.07 | 1.25±0.19 | – | – | –
CC(=O)Nc1ccc2c(c1)CCN2Cc1ccc(F)cc1 [N-(1-(4-fluorobenzyl)indolin-5-yl)acetamide] | A (degradation lower than 20%) | A (degradation lower than 20%) | 1.64±0.20 | 1.88±0.14 | – | – | –
O=S(=O)(Nc1ccc2c(c1)CCN2Cc1ccc(F)cc1)N1CCCCCC1 [N-(1-(4-fluorobenzyl)indolin-5-yl)azepane-1-sulfonamide] | B (20%< degradation<40%) | B (20%< degradation<40%) | 0.98±0.11 | 0.89±0.12 | – | – | –
O=S(=O)(Nc1ccc2c(c1)CCN2Cc1ccc(F)cc1)c1ccccc1 [N-(1-(4-fluorobenzyl)indolin-5-yl)benzenesulfonamide] | B (20%< degradation<40%) | A (degradation lower than 20%) | 0.64±0.14 | 1.15±0.28 | – | – | –
CCCCS(=O)(=O)Nc1ccc2c(c1)CCN2Cc1ccc(F)cc1 [N-(1-(4-fluorobenzyl)indolin-5-yl)butane-1-sulfonamide] | C (degradation > 40%) | C (degradation > 40%) | 1.55±0.12 | 2.03±0.19 | – | – | –
O=C(Nc1ccc2c(c1)CCN2Cc1ccc(F)cc1)C1CCCCC1 [N-(1-(4-fluorobenzyl)indolin-5-yl)cyclohexanecarboxamide] | B (20%< degradation<40%) | A (degradation lower than 20%) | 0.66±0.07 | 1.32±0.21 | – | – | –
CCCCCCS(=O)(=O)Nc1ccc2c(c1)CCN2Cc1ccc(F)cc1 [N-(1-(4-fluorobenzyl)indolin-5-yl)hexane-1-sulfonamide] | C (degradation > 40%) | B (20%< degradation<40%) | 2.18±0.09 | 2.48±0.20 | – | – | –
O=S(=O)(Nc1ccc2c(c1)CCN2CCc1ccc(F)cc1)C1CCCCC1 [N-(1-(4-fluorophenethyl)indolin-5-yl)cyclohexanesulfonamide] | C (degradation > 40%) | C (degradation > 40%) | 1.37±0.17 | 3.24±1.52 | – | – | –
COc1ccc(Cn2ccc3cc(NS(=O)(=O)C4CCCCC4)ccc32)cc1 [N-(1-(4-methoxybenzyl)-1H-indol-5-yl)cyclohexanesulfonamide] | A (degradation lower than 20%) | A (degradation lower than 20%) | 1.63±0.06 | 2.00±0.36 | – | – | –
COc1ccc(CN2c3ccc(NS(=O)(=O)C4CCCCC4)cc3CC2C)cc1 (centres unmarked) [N-(1-(4-methoxybenzyl)-2-methylindolin-5-yl)cyclohexanesulfonamide] | C (degradation > 40%) | B (20%< degradation<40%) | 0.92±0.13 | 1.13±0.15 | – | – | –
COc1ccc(CN2CCc3cc(NS(=O)(=O)C4CCCCC4)ccc32)cc1 [N-(1-(4-methoxybenzyl)indolin-5-yl)cyclohexanesulfonamide] | C (degradation > 40%) | C (degradation > 40%) | 4.24±0.83 | 6.43±1.51 | – | – | –
CCCCCCC(=O)Nc1ccc(NCc2ccc(C(F)(F)F)cc2)c(F)c1N [N-(2-amino-3-fluoro-4-((4-(trifluoromethyl)benzyl)amino)phenyl)heptanamide] | A (degradation lower than 20%) | A (degradation lower than 20%) | 1.94±0.12 | 5.76±1.28 | – | – | –
CCCCCCC(=O)Nc1ccc(NCc2ccc(OC(F)(F)F)cc2)cc1N [N-(2-amino-4-((4-(trifluoromethoxy)benzyl)amino)phenyl)heptanamide] | B (20%< degradation<40%) | A (degradation lower than 20%) | 2.05±0.56 | 12.4±2.05 | – | – | –
Nc1cc(NCc2ccc(C(F)(F)F)cc2)ccc1NS(=O)(=O)C1CCCCC1 [N-(2-amino-4-((4-(trifluoromethyl)benzyl)amino)phenyl)cyclohexanesulfonamide] | C (degradation > 40%) | C (degradation > 40%) | 0.19±0.1 | 1.5±0.2 | – | – | –
CCCCCCC(=O)Nc1ccc(NCc2ccc(C(F)(F)F)cc2)cc1N [N-(2-amino-4-((4-(trifluoromethyl)benzyl)amino)phenyl)heptanamide] | B (20%< degradation<40%) | A (degradation lower than 20%) | 2.55±0.56 | 16.90±3.33 | 200 ± 100 nM | eight times more potent than retigabine | Inactive
CCCCCCC(=O)Nc1ccc(NCc2ccc(F)cc2)c(F)c1 [N-(3-fluoro-4-((4-fluorobenzyl)amino)phenyl)heptanamide] | A (degradation lower than 20%) | A (degradation lower than 20%) | 3.30±0.40 | 8.85±1.17 | – | – | –
CCOC(=O)Nc1ccc2c(c1)CCN2Cc1ccc(F)cc1 [ethyl (1-(4-fluorobenzyl)indolin-5-yl)carbamate] | C (degradation > 40%) | A (degradation lower than 20%) | 1.26±0.13 | 2.01±0.58 | – | – | –

Reference: patent EP3917907B1, “MODULATORS OF POTASSIUM ION CHANNELS AND USES THEREOF” (Universitá Degli Studi Di Salerno, priority 2019, dated 2020)
